According to patent publication US20210290676A1, “IMPROVING THE EFFICACY AND SAFETY OF ADOPTIVE CELLULAR THERAPIES” (University of Southern California, priority 2018, published 2021):

Experiments:
Assay type in all cases: cell-based, human
[1] = tested on: Pgp+ (DiOC2(3)-dye effluxing) T cells; assay: DiOC2(3) dye efflux flow cytometry of inhibitor-treated T cells; conditions: treatment for 13 days, IL2 + CD3 and CD28 antibodies
Experimental: (§1) The use of P-glycoprotein (Pgp)-mediated efflux of DiOC2(3) to isolate stem like T cells for adoptive cellular therapy has been described in application no. […] In the following examples, DiOC2(3) staining was used to study the effect of different inhibitors on generation of stem like T cells.
(§2) DAY 0: Blood was obtained from unidentified donor. After RBC lysis, PBMC were collected using Ficoll-Hypaque separation. […] T cells were cultured in three different conditions: • 1. XVIVO 15 medium (Lonza) with IL2 50 IU/ml, CD3 antibody (30 ng/ml) and CD28 antibody (30 ng/ml). • 2. XVIVO 15 medium (Lonza) with CD3 antibody (30 ng/ml) and CD28 antibody (30 ng/ml). • 3. XVIVO 15 medium (Lonza) with IL2 50 IU/ml DAY 1: Cells were plated in a 6-well plate at a density of 1 million cells in 2 ml/of media (as described above) and treated with different inhibitors
(§3) The cell growth medium was changed in 6-well plates and fresh drugs were added at same concentration for one more week.
(§4) […] (DAY 11): Culture medium was changed and fresh drugs were added in 6-well plates.
(§5) Subsequently, cells were washed with RPMI medium and dye was effluxed at 37° C. for 90 min. Cells were washed with […], stained with CD62L-APC (5 μl/100 μl/sample) at 4° C. for 1 h, washed twice with PBS+1% FBS and analyzed on flow cytometer to check if these drugs treatment leads to increase in Pgp+/CD62L positive population.
(§6) Day 0: Blood was obtained from unidentified donor. After RBC lysis, PBMC were collected using Ficoll-Hypaque separation. 200 million T cells were isolated from PBMCs using CD3 microbeads. T cells were cultured overnight in XVIVO 15 medium (Lonza) with IL2 (50 IU/ml), 30 ng/ml of CD3 and CD28 antibodies
(§7) Day 1: Cells were plated in 24-well plates at a density of 0.3 million cells/ml in each well and treated with different drugs.
(§8) On day 7, culture medium was replaced with fresh medium with fresh drugs.
(§9) On day 13, culture medium was replaced with fresh medium and fresh drugs. Half of the cells were transferred to 6-well plates.
(§10) Day 14: An aliquot of cells with all the treatments listed above (for 13 days) was used to stain the cells with DiOC2(3) (60 ng/ml in RPMI medium) at 4° C. for 40 min, washed with RPMI medium, DiOC2(3) dye was effluxed at 37° C. for 90 min, washed with PBS+1% FBS, stained with CD62L-APC antibody. CD62L is a marker for resting T cells. (5 μl/100 μl/sample) at 4° C. for 1 h, washed twice with PBS+1% FBS and analyzed on flow cytometer to check if these drugs are affecting the dye-effluxing or Pgp+ (i.e., DiOC2(3)-dull) T-cell population.

[2] = tested on: Pgp+ (DiOC2(3)-dye effluxing cells) and CD62L+ T cells; assay: DiOC2(3) dye efflux plus CD62L-APC staining, flow cytometry of inhibitor-treated T cells; conditions: treatment for 13 days, IL2 + CD3 and CD28 antibodies
Experimental: as §1, §2, §3, §4, §5, §6, §7, §8, §9, §10

[3] = tested on: CD45RA+CCR7+CD62L+ T cells; assay: Flow cytometry for CD45RA, CCR7 and CD62L on inhibitor-treated T cells (all T cells); conditions: cells cultured for 14 days
Experimental: as §2
(§11) A second aliquot of the cells cultured for 13 days with all the treatments listed above (1-21) was washed with PBS+1% FBS, stained with CD8-PerCP, CD45RA-FITC, CCR7-PE and CD62L-APC (5% Y/100 μl/sample for each of 4 antibodies) at 4° C. for 1 h, washed twice with PBS+100 FBS and analyzed on flow cytometer to check if these drugs are enriching T stem cells showing surface expression of CD8+CD45RA+CCR7+CD62L+.
as §6, §7, §8, §9
as §11, with “14” for “13”, “above” for “above (1-21)”, “(5 ul/100 ul/sample” for “(5% Y/100 μl/sample”, “PBS+1%” for “PBS+100”, “enriching for” for “enriching”, “T” for “T stem”

[4] = tested on: CD8+CD45RA+CCR7+CD62L+ T cells; assay: Flow cytometry for CD8, CD45RA, CCR7 and CD62L on inhibitor-treated T cells; conditions: cells cultured for 14 days
Experimental: as §2, §11, §6, §7, §8, §9
as §11, with “14” for “13”, “above” for “above (1-21)”, “(5 ul/100 ul/sample” for “(5% Y/100 μl/sample”, “PBS+1%” for “PBS+100”, “enriching for” for “enriching”, “T” for “T stem”

| Structure (SMILES) | p2: pgp+ from Live cells ([1]; 100 nM) | p2: pgp+ from Live cells ([1]; 500 nM) | p5: double +ve pgp+ and CD62L-APC+ from Live cells ([2]; 100 nM) | p5: double +ve pgp+ and CD62L-APC+ from Live cells ([2]; 500 nM) | GATE P6 CD45RA(FITC)+, CCR7 (PE)+, CD62L(APC) ([3]; 100 nM) | GATE P6 CD45RA(FITC)+, CCR7 (PE)+, CD62L(APC) ([3]; 500 nM) | GATE P4 CD8(PerCP)+, CD45RA(FITC)+, CCR7 (PE)+, CD62L(APC) ([4]; 100 nM) | GATE P4 CD8(PerCP)+, CD45RA(FITC)+, CCR7 (PE)+, CD62L(APC) ([4]; 500 nM) | p2: pgp+ from Live cells ([1]; 1 μM) | p5: double +ve pgp+ and CD62L-APC+ from Live cells ([2]; 1 μM) | GATE P6 CD45RA(FITC)+, CCR7 (PE)+, CD62L(APC) ([3]; 1 μM) | GATE P4 CD8(PerCP)+, CD45RA(FITC)+, CCR7 (PE)+, CD62L(APC) ([4]; 1 μM) | p2: pgp+ from Live cells ([1]; 200 nM) | p5: double +ve pgp+ and CD62L-APC+ from Live cells ([2]; 200 nM) | GATE P6 CD45RA(FITC)+, CCR7 (PE)+, CD62L(APC) ([3]; 200 nM) | GATE P4 CD8(PerCP)+, CD45RA(FITC)+, CCR7 (PE)+, CD62L(APC) ([4]; 200 nM) | p2: pgp+ from Live cells ([1]; 500 (unit not given)) | p5: double +ve pgp+ and CD62L-APC+ from Live cells ([2]; 500 (unit not given)) |
| --- | --- | --- | --- | --- | --- | --- | --- | --- | --- | --- | --- | --- | --- | --- | --- | --- | --- | --- |
| COc1cc(-c2cn(C)c(=O)c3cnccc23)c(OC)cc1CN(C)C [B9564] | 13.39 | 15.56 | 2.53 | 3.03 | 63.27% | 73.75% | 73.18% | 83.31% |  |  |  |  |  |  |  |  |  |  |
| CCc1sc(N)nc1-c1ccc(OC)cc1 [CBFB] |  | 16.01 |  | 2.85 |  | 64.71% |  | 74.77% | 20.93 | 3.56 | 65.61% | 74.12% |  |  |  |  |  |  |
| CCS(=O)(=O)N1CCC([C@@H](C)n2c(C)c(C(=O)NCc3c(OC)cc(C)[nH]c3=O)c3ccccc32)CC1 [CP1169] | 25.52 |  | 4.68 |  | 70.48% |  | 81.07% |  |  |  |  |  | 30.65 | 6.4 | 66.23% | 75.83% |  |  |
| COc1cc(C)[nH]c(=O)c1CNC(=O)c1c(C)n([C@H](C)C2CCOCC2)c2ccccc12 [CPI360] | 25.15 |  | 5.82 |  | 70.85% | 69.62% | 81.01% | 81.26% |  |  |  |  |  |  |  |  | 35.55 | 11.11 |
| CS(=O)(=O)c1ccc(-c2cnc(NCc3ccco3)n3cnnc23)cc1 [EED226] |  | 37.6 |  | 10.41 |  | 60.45% |  | 70.21% | 43.53 | 11.82 | 60.45% | 74.83% |  |  |  |  |  |  |
| CCN(c1cc(C#CCN2CCOCC2)cc(C(=O)NCc2c(C)cc(C)[nH]c2=O)c1C)[C@H]1CC[C@H](N(C)CCOC)CC1 [EPZ011989] |  | 64.39 |  | 18.77 |  | 57.62% |  | 70.63% | 62.54 | 16.8 | 58.31% | 72.83% |  |  |  |  |  |  |
| CC[C@H](C)n1cc(C)c2c(C(=O)NCc3c(C)cc(C)[nH]c3=O)cc(-c3ccc(N4CCNCC4)nc3)cc21 [GSK126] | 36.37 | 26.61 | 8.83 | 8.08 | 67.75% | 67.65% | 76.44% | 79.6% |  |  |  |  |  |  |  |  |  |  |
